Data set [1] has as its system Morrison rat model eye with elevated intraocular pressure. Briefly: Morrison rat model for glaucoma, IOP by tonometer after topical application. It is filed as in vivo. An excerpt:
The Intraocular Pressure (“IOP”) in a rat eye was lowered following treatment of the eye with about a 1% (w/v) phenanthroline solution. Briefly, the IOP was elevated in one eye for rats grouped as specified below by using the method as described by Morrison et al (1997). […] The other eyes was used as a control. Rats were housed post-surgically in constant low light (<90 lux) to minimize effects of circadian influences on IOP. Five rats were used per treatment group.
A solution of 1,7-phenanthroline was prepared by dissolving 10 mg of 1,7-phenanthroline in 32 μl methanol (100%) forming a concentrated 1,7-phenanthroline solution. About 3 μl of the concentrated 1,7-phenanthroline solution was then added to 96 μl of saline (0.9% NaCl) to form a working 1,7-phenanthroline solution. The working 1,7-phenanthroline solution was then used in the eye of the Morrison Model of Glaucoma. The average intraocular pressure (IOP) in Morrison model eye was 26.22 (average of nine readings) prior to application of the working 1,7-phenanthroline solution. In contrast, the IOP measured 6 hr after application of the working 1,7-phenanthroline solution dropped to 25.66, as shown in FIG. 6A.
(§1) A solution of 4,7-dihydroxy-1,10-phenanthroline was prepared by dissolving 7 mg of 4,7-dihydroxy-1,10-phenanthroline in 22 μl methanol, 30 μl 1 N NaOH, and 626 μl of saline (0.9% NaCl) forming a 4,7-dihydroxy-1,10-phenanthroline solution having a pH of about 10.42. […] The 4,7-dihydroxy-1,10-phenanthroline solution was centrifuged at 10,000×g for about 5 min to remove the precipitate. The clear supernatant was removed and used for testing the Morrison model eye. The average intraocular pressure (IOP) in the eye with elevated pressure was 27.77 (average of nine readings) prior to application of the drug.
(§2) A solution of 1,10-phenanthroline 5,6-dione was prepared by dissolving 7 mg of 1,10-phenanthroline 5,6-dione in 44 μl methanol, and 88 μl dimethylsulfoxide (DMSO). […] The 1,10-phenanthroline 5,6-dione solution with precipitate was centrifuged at 10,000×g for 5 min, and the clear supernatant was removed. 6 μl of the supernatant plus 97 μl of saline formed the working solution used in the Morison model of glaucoma. The average intraocular pressure (IOP) in eye with elevated pressure was 27.66 (average of nine readings) prior to application of the drug.

Data set [2] is described as follows: Solubility observed while preparing the test solution. It is filed as physicochemical. The method, then:
as §1, §2

Data set [3] concerns patients. The note with it: patients treated with latanoprost; cited from earlier work.
Data set [4] addresses T1, thermolysin (Bacillus thermoproteolyticus, UniProt P00800).
T1 sequence (P00800 233-548): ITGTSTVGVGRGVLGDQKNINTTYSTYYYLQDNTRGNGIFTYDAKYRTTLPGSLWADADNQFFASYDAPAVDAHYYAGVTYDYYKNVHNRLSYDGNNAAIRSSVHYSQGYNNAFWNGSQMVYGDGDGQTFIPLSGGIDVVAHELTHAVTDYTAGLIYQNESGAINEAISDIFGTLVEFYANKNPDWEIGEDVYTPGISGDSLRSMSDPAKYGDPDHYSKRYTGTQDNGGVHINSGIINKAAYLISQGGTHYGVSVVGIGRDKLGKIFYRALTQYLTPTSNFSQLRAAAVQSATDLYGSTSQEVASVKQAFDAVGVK
The note with it: reversible inhibitor; cited from earlier work.

We go through 5 molecules from patent US20060111388A1, “Phenanthroline and derivatives thereof used to lower intraocular pressure in an affected eye” (University of North Texas Health Science Center at Fort …, priority 2004, published 2006).

Structures are written as SMILES.

Consider `c1cnc2c(c1)ccc1ncccc12` [1,7-phenanthroline], for which the “IOP measured 6 hr after application (FIG. 6A)” value in data set [1] (working solution: 10 mg in 32 μl methanol, 3 μl added to 96 μl saline, average IOP 26.22 (nine readings) prior to application) came to 25.66.

As to `O=C1C(=O)c2cccnc2-c2ncccc21` [1,10-phenanthroline 5,6-dione], the “IOP measured 6 hr after application (FIG. 6C)” value in data set [1] (6 μl supernatant (7 mg in 44 μl methanol, 88 μl DMSO) plus 97 μl saline, average IOP 27.66 (nine readings) prior to application) came out at 25.44. For the same molecule, the “solubility in methanol and DMSO” value in data set [2] (7 mg in 44 μl methanol and 88 μl dimethylsulfoxide) is recorded as “the entire drug was not solubilized”.

On to `Oc1ccnc2c1ccc1c(O)ccnc12` [4,7-dihydroxy-1,10-phenanthroline], for which the “IOP measured 6 hr after application (FIG. 6B)” value in data set [1] (clear supernatant of 7 mg in 22 μl methanol, 30 μl 1 N NaOH, 626 μl saline, adjusted to pH 7.7, average IOP 27.77 (nine readings) prior to application) is reported as 26.22. For the same molecule, in data set [2] (7 mg in 22 μl methanol, 30 μl 1 N NaOH, 626 μl saline, 1N HCl), the “solubility on adjusting solution from pH about 10.42 to pH 7.7” value was “some precipitation of the drug”.

As to `CC(C)OC(=O)CCC/C=C\C[C@@H]1[C@@H](CC[C@@H](O)CCc2ccccc2)[C@H](O)C[C@@H]1O` [latanoprost, Latanoprost], in data set [3], the “increased iris pigmentation, share of patients” value was “up to one in six”.

With `c1cnc2c(c1)ccc1cccnc12` [phenanthroline, 1,10-phenanthroline], the “intraocular pressure (FIG. 4)” value in data set [1] (1% (w/v) in saline, 20-25 μl topically once, 22 and 27 days following surgery, cohort 2-4-04, IOP measured after 1 hour and 6 hours) is recorded as “decreased”. In addition, in data set [1] (1% phenanthroline, 27 days following surgery, ID#1-17-48 in cohort 2-4-04), the “intraocular pressure (FIG. 5)” value was “decreased”. Also, the Ki in data set [4] is 40 µM.

As usually defined, the Ki is the equilibrium dissociation constant of an inhibitor or competing ligand from its target.
